System: HepG2 viability, ATP luminescence (CellTiter-Glo), 72 h
Assay: ATP-based viability loss in HepG2 cells – cell-based, CellTiter-Glo luminescence, cherry-pick, set 3, cytotoxicity control, dose response (AID 720589)

With C[C@@H]1CN([C@@H](C)CO)C(=O)Cc2cc(NC(=O)C3CCCCC3)ccc2O[C@H]1CN(C)Cc1ccc(C(=O)Nc2ccccc2N)cc1 as the compound, how does the AC35 read?
The AC35 was 830 nM.

For CCCCc1c(-c2ccccc2OC)ncn1Cc1ccc(C(C)(C)C)cc1, which AC35 is on record?
The AC35 was 8480 nM.

For O=C1NC(=O)N(Cc2ccco2)C(=O)/C1=C/C=C/c1ccco1, which AC35 is on record?
Its AC35 is 10300 nM.

For C[C@@H]1CN([C@H](C)CO)C(=O)Cc2cc(NC(=O)CCCCCC(=O)Nc3ccccc3N)ccc2O[C@@H]1CN(C)CC1CCCCC1, which AC35 is on record?
The AC35 was 1930 nM.

With CC(=O)OC1CC(OC2C(O)CC(OC3C(O)CC(OC4CCC5(C)C(CCC6C5CCC5(C)C(C7=CC(=O)OC7)C(O)CC65O)C4)OC3C)OC2C)OC(C)C1OC1OC(CO)C(O)C(O)C1O (stereo not given) as the compound, how does the AC35 read?
Its AC35 is 475 nM.

Source: PubChem BioAssay AID720589 (Broad Institute, 2013)
